Measured values from patent publication US20230090446A1, “ANTISENSE OLIGONUCLEOTIDE TARGETING LINC00518 FOR TREATING MELANOMA” (UNIVERSITE DE STRASBOURG, priority 2020, published 2023).

Test system: LINC00518
Test: LINC00518 expression by RT-qPCR in cells treated with MAPK pathway inhibitors
Conditions: 501Mel and A375 cells, between 12-72 hours after treatment
Protocol: Activated Caspase 3 was measured by FACS.
Samples were taken at the indicated time points, total RNA was extracted, retrotranscribed and analyzed by qPCR for LINC00518 expression. B. LINC00518 RNA levels were quantified from scRNAseq of melanoma patient derived xenotransplants (PDXs) treated with Dabrafenib and Trametinib (GSE116237). […] LINC00518 RNA levels were quantified from RNA sequencing of melanoma patients treated with Durvalumab and Trametinib for 15 days (GSE158403). […] Cytoplasmic and mitochondrial RNA fractions were extracted, retrotranscribed and analyzed by qPCR for LINC00518 expression. […] Oxygen consumption rate (OCR) was measured using Agilent Seahorse. Basal and Maximal OCR and reserve capacity were calculated on the basis of OCR changes upon oligomycin (oligo), FCCP and Rotenone A (RotA) administration to the cells.
Total mRNA isolation was performed using the Genelute Mammalian Total RNA Miniprep Kit (Sigma) following manufacturer instructions, or using Trizol and isopropanol precipitation. […] Total and fractionated RNAs were treated with DNAsel following the TurboDnase free kit instructions (Thermofisher) and reversed transcribed using Superscript IV reverse transcriptase (Thermofisher) following manufacturer instructions. qRT-PCR was carried out with SYBR Green I (Roche) and monitored by a LightCycler 480 (Roche). […]

CC(C)(C)c1nc(-c2cccc(NS(=O)(=O)c3c(F)cccc3F)c2F)c(-c2ccnc(N)n2)s1 [Dabrafenib] was tested, and the LINC00518 expression was “up-regulation”.
